Source: patent US20220088016A1, “CANCER TREATMENT USING MULTI-TARGETED KINASE INHIBITOR IN COMBINATION OF PROTEIN KINASE BIOMARKERS” (ZHEJIANG CROWNMAB BIOTECH CO. LTD., priority 2019, published 2022)

Tests used:
CSNK2A1 = CSNK2A1 (Homo sapiens, UniProt P68400); assay: Kinase profiling; type: binding; settings: read-out: % Ctrl @ 1000 nM
ERBB2 = ERBB2 (Homo sapiens, UniProt P04626); assay: Kinase profiling; type: binding; settings: read-out: % Ctrl @ 1000 nM
ERK3 = ERK3 (Homo sapiens, UniProt Q16659); assay: Kinase profiling; type: binding; settings: read-out: % Ctrl @ 1000 nM
MST1 = molecular target: T1, MST1 (Homo sapiens, UniProt Q13043); assay: Kinase profiling; type: binding; settings: read-out: % Ctrl @ 1000 nM
T1 construct: T7 phage fusion (stated for most kinases of the panel only); made in house; host or cells: T7 phage in E. coli (BL21-derived) or HEK-293 cells

MYO3A = molecular target: T2, MYO3A (Homo sapiens, UniProt Q8NEV4); assay: Kinase profiling; type: binding; settings: read-out: % Ctrl @ 1000 nM
T2 construct: T7 phage fusion (said for most assays); made in house

NDR2 = molecular target: T3, NDR2 (Homo sapiens, UniProt Q9Y2H1); assay: Kinase profiling; type: binding; settings: read-out: % Ctrl @ 1000 nM
T3 construct: T7 phage fusion (said for most assays); made in house

PIK3CA (I800L) = PIK3CA (I800L) (Homo sapiens, UniProt P42336, I800L); assay: Kinase profiling; type: binding; settings: read-out: % Ctrl @ 1000 nM
Sequence of PIK3CA (I800L) (P42336 whole entry I800L): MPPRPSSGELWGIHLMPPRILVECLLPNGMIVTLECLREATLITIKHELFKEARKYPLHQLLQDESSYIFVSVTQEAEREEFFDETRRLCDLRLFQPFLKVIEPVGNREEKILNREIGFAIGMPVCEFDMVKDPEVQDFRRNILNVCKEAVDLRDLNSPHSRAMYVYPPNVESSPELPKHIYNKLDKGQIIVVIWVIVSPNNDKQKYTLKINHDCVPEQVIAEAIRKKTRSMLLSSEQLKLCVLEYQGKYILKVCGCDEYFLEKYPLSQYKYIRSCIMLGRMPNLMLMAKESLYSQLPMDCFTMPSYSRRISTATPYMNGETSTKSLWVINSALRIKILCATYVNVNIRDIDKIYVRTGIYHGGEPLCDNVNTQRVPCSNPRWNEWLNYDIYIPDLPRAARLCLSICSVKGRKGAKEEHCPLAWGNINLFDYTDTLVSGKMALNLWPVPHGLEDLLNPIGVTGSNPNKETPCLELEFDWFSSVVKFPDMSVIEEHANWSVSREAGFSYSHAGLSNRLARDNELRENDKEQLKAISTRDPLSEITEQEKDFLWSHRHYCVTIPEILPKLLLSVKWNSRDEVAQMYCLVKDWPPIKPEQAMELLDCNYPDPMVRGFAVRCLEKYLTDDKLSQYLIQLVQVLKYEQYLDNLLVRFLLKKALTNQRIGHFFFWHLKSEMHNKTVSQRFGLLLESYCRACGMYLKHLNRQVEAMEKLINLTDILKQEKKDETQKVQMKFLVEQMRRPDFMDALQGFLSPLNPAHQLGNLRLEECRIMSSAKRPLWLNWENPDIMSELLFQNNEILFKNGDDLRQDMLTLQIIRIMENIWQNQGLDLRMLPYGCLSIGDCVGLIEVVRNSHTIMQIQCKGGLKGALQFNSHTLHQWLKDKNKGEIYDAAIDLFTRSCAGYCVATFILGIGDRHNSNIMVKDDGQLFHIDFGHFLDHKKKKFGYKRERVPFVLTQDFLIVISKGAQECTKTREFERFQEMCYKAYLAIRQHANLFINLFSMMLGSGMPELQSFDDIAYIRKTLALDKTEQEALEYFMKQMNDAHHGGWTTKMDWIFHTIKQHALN

TRKB = TRKB (Homo sapiens, UniProt Q16620); assay: Kinase profiling; type: binding; settings: read-out: % Ctrl @ 1000 nM
TRPM6 = TRPM6 (Homo sapiens, UniProt Q9BX84); assay: Kinase profiling; type: binding; settings: read-out: % Ctrl @ 1000 nM
Aurora-A (h) = molecular target: T4, Aurora-A (h) (Homo sapiens, UniProt O14965); assay: Kinase IC50 (Eurofins KinaseProfiler); type: biochemical
T4 construct: purchased Eurofins
Description: (§1) CBT-102 were tested against each of the selected kinases using the Eurofins standard KinaseProfder assays and following the relevant standard operating procedures. The required volume of the 50× stock of test compound (CBT-102) was added to the assay well, before a reaction mix containing the enzyme and substrate was added. The reaction was initiated by the addition of ATP at the selected concentration. There was no pre-incubation of the compound with the enzyme/substrate mix prior to ATP addition.
(§2) Data are handled using a custom-built in-house analysis software. Results are expressed as kinase activity remaining, as a percentage of the DMSO control. This is calculated using the following formula: […]
(§3) For IC50 determinations, data are analyzed using XLFit version 5.3 (ID Business Solutions).

B-Raf (h) = molecular target: T5, B-Raf (h) (Homo sapiens, UniProt P15056); assay: Kinase IC50 (Eurofins KinaseProfiler); type: biochemical
T5 construct: purchased Eurofins
Description: as §1, §2, §3

CDK4/cyclinD3 (h) = molecular target: T6, CDK4/cyclinD3 (h) (Homo sapiens, UniProt P11802); assay: Kinase IC50 (Eurofins KinaseProfiler); type: biochemical
T6 construct: purchased Eurofins (KinaseProfiler service)
Description: as §1, §2, §3

DDR1 (h) = molecular target: T7, DDR1 (h) (Homo sapiens, UniProt Q08345); assay: Kinase IC50 (Eurofins KinaseProfiler); type: biochemical
T7 construct: purchased Eurofins (KinaseProfiler service)
Description: as §1, §2, §3

DDR2 (h) = molecular target: T8, DDR2 (h) (Homo sapiens, UniProt Q16832); assay: Kinase IC50 (Eurofins KinaseProfiler); type: biochemical
T8 construct: purchased Eurofins (KinaseProfiler service)
Description: as §1, §2, §3

EphB2 (h) = molecular target: T9, EphB2 (h) (Homo sapiens, UniProt P29323); assay: Kinase IC50 (Eurofins KinaseProfiler); type: biochemical
T9 construct: purchased Eurofins (KinaseProfiler service)
Description: as §1, §2, §3

ErbB2 (h) = molecular target: T10, ErbB2 (h) (Homo sapiens, UniProt P04626); assay: Kinase IC50 (Eurofins KinaseProfiler); type: biochemical
T10 construct: purchased Eurofins (KinaseProfiler service)
Description: as §1, §2, §3

FAK (h) = molecular target: T11, FAK (h) (Homo sapiens, UniProt Q05397); assay: Kinase IC50 (Eurofins KinaseProfiler); type: biochemical
T11 construct: purchased Eurofins (KinaseProfiler service)
Description: as §1, §2, §3

FGFR4 (h) = molecular target: T12, FGFR4 (h) (Homo sapiens, UniProt P22455); assay: Kinase IC50 (Eurofins KinaseProfiler); type: biochemical
T12 construct: purchased Eurofins (KinaseProfiler service)
Description: as §1, §2, §3

IR (h) = molecular target: T13, IR (h) (Homo sapiens, UniProt P06213); assay: Kinase IC50 (Eurofins KinaseProfiler); type: biochemical
T13 construct: purchased Eurofins (KinaseProfiler service)
Description: as §1, §2, §3

MAP4K5 (h) = molecular target: T14, MAP4K5 (h) (Homo sapiens, UniProt Q9Y4K4); assay: Kinase IC50 (Eurofins KinaseProfiler); type: biochemical
T14 construct: purchased Eurofins (KinaseProfiler service)
Description: as §1, §2, §3

MLK1 (h) = molecular target: T15, MLK1 (h) (Homo sapiens, UniProt P80192); assay: Kinase IC50 (Eurofins KinaseProfiler); type: biochemical
T15 construct: purchased Eurofins (KinaseProfiler service)
T15 sequence (P80192 whole entry): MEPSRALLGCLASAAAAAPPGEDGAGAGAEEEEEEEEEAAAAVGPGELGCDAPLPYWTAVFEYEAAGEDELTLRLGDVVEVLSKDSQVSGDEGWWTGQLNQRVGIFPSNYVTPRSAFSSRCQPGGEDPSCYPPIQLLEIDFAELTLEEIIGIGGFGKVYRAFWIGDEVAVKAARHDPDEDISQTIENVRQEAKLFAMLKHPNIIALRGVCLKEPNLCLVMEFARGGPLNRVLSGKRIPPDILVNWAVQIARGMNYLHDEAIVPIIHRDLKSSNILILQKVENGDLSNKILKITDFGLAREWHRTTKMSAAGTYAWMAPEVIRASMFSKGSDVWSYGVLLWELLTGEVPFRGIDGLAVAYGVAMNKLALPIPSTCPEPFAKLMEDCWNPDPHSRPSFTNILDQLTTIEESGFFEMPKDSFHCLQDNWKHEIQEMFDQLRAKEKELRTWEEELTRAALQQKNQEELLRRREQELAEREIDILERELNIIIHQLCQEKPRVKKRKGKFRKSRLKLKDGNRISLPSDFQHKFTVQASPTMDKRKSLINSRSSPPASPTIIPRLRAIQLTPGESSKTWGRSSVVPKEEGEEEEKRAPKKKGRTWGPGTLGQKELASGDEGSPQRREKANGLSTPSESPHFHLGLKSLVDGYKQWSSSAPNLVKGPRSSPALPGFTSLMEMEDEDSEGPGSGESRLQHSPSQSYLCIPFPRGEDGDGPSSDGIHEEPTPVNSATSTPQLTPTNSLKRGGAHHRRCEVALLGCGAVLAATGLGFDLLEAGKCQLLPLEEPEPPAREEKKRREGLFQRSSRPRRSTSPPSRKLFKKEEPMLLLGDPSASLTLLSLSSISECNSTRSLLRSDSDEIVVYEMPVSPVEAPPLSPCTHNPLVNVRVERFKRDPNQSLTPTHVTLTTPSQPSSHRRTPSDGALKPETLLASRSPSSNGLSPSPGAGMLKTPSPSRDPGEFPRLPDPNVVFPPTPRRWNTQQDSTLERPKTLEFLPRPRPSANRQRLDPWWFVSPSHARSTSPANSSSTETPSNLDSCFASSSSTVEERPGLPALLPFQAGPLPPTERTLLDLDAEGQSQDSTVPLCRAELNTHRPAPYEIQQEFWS
Description: as §1, §2, §3

Met (h) = molecular target: T16, Met (h) (Homo sapiens, UniProt P08581); assay: Kinase IC50 (Eurofins KinaseProfiler); type: biochemical
T16 construct: purchased Eurofins (KinaseProfiler service)
T16 sequence (P08581 25-1390): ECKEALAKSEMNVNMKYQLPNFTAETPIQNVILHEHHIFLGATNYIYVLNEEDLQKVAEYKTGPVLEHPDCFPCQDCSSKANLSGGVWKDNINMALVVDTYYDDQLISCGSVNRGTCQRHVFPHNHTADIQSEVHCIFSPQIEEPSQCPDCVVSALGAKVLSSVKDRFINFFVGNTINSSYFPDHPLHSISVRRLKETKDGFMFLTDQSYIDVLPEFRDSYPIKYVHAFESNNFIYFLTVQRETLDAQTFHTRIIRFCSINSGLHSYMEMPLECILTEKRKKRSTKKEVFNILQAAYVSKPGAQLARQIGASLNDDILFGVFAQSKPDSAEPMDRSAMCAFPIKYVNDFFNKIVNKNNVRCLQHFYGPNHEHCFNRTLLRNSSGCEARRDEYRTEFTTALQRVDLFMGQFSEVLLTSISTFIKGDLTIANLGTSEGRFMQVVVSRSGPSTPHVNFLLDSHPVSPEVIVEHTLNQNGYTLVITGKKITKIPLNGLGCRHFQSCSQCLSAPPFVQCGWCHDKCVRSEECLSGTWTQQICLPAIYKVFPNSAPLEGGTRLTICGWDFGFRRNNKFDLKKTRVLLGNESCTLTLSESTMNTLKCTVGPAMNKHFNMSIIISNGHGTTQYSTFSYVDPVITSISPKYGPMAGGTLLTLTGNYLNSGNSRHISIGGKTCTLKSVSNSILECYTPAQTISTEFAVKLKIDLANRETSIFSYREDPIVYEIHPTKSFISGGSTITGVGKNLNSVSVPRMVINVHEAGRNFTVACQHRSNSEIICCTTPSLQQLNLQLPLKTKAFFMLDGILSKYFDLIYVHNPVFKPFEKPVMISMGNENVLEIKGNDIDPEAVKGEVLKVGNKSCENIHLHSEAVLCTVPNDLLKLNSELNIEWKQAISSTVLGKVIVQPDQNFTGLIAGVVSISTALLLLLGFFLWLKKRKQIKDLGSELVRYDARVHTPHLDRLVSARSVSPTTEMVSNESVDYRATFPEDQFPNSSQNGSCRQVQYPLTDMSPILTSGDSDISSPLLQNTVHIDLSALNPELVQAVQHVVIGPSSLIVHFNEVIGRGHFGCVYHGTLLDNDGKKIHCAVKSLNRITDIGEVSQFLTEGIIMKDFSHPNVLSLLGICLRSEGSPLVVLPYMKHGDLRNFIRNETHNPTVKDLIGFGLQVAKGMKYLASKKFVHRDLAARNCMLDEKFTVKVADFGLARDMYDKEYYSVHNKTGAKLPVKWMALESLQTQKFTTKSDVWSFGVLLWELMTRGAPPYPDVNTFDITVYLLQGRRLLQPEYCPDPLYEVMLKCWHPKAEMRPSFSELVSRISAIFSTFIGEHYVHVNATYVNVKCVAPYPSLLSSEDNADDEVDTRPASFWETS
Description: as §1, §2, §3

PDGFRβ (h) = molecular target: T17, PDGFRβ (h) (Homo sapiens, UniProt P09619); assay: Kinase IC50 (Eurofins KinaseProfiler); type: biochemical
T17 construct: purchased Eurofins (KinaseProfiler service)
Description: as §1, §2, §3

PKA (h) = molecular target: T18, PKA (h) (Homo sapiens, UniProt P17612); assay: Kinase IC50 (Eurofins KinaseProfiler); type: biochemical
T18 construct: purchased Eurofins
Description: as §1, §2, §3

PKBα (h) = molecular target: T19, PKBα (h) (Homo sapiens, UniProt P31749); assay: Kinase IC50 (Eurofins KinaseProfiler); type: biochemical
T19 construct: purchased Eurofins
Description: as §1, §2, §3

Pim-1 (h) = molecular target: T20, Pim-1 (h) (Homo sapiens, UniProt P11309); assay: Kinase IC50 (Eurofins KinaseProfiler); type: biochemical
T20 construct: purchased Eurofins
T20 sequence (P11309 whole entry): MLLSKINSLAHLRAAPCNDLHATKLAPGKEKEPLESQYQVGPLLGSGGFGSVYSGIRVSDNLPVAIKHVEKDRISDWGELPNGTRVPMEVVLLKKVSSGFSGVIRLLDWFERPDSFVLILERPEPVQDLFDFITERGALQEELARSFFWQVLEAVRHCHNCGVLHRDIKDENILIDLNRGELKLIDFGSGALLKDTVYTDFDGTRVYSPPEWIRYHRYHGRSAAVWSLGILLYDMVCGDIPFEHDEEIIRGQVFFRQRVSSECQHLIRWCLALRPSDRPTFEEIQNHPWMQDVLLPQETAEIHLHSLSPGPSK
Description: as §1, §2, §3

Ret (V804M) (h) = molecular target: T21, Ret (V804M) (h) (Homo sapiens, UniProt P07949, V804M); assay: Kinase IC50 (Eurofins KinaseProfiler); type: biochemical
T21 construct: purchased Eurofins
Description: as §1, §2, §3

Ret (h) = molecular target: T22, Ret (h) (Homo sapiens, UniProt P07949); assay: Kinase IC50 (Eurofins KinaseProfiler); type: biochemical
T22 construct: purchased Eurofins
Description: as §1, §2, §3

SAPK2b (h) = molecular target: T23, SAPK2b (h) (Homo sapiens, UniProt Q15759); assay: Kinase IC50 (Eurofins KinaseProfiler); type: biochemical
T23 construct: purchased Eurofins
T23 sequence (Q15759 whole entry): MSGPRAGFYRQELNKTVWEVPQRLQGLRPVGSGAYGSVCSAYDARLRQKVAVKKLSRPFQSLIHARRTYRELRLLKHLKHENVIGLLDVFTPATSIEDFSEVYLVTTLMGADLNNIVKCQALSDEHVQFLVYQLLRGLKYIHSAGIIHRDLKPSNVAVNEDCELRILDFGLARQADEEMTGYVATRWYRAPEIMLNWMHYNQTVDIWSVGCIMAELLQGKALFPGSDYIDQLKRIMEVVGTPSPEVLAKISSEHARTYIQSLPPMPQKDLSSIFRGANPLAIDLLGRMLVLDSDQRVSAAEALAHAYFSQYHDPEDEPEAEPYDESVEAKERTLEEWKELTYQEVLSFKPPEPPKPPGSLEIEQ
Description: as §1, §2, §3

SAPK4 (h) = molecular target: T24, SAPK4 (h) (Homo sapiens, UniProt O15264); assay: Kinase IC50 (Eurofins KinaseProfiler); type: biochemical
T24 construct: purchased Eurofins
T24 sequence (O15264 whole entry): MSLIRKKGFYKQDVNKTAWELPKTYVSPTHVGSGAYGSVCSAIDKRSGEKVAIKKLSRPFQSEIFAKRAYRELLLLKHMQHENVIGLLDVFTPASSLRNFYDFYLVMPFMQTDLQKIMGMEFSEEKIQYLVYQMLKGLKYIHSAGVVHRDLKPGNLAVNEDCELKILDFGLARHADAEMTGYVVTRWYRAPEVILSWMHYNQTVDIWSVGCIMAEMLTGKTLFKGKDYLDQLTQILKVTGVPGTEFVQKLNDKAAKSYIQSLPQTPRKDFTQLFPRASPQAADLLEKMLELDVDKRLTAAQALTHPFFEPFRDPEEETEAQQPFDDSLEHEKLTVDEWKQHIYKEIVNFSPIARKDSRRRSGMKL
Description: as §1, §2, §3

TNIK (h) = molecular target: T25, TNIK (h) (Homo sapiens, UniProt Q9UKE5); assay: Kinase IC50 (Eurofins KinaseProfiler); type: biochemical
T25 construct: purchased Eurofins
Description: as §1, §2, §3

Tie2 (h) = molecular target: T26, Tie2 (h) (Homo sapiens, UniProt Q02763); assay: Kinase IC50 (Eurofins KinaseProfiler); type: biochemical
T26 construct: purchased Eurofins
Description: as §1, §2, §3

ZAK (h) = molecular target: T27, ZAK (h) (Homo sapiens, UniProt Q9NYL2); assay: Kinase IC50 (Eurofins KinaseProfiler); type: biochemical
T27 construct: purchased Eurofins
Description: as §1, §2, §3

p70S6K (h) = molecular target: T28, p70S6K (h) (Homo sapiens, UniProt P23443); assay: Kinase IC50 (Eurofins KinaseProfiler); type: biochemical
T28 construct: purchased Eurofins (KinaseProfiler service)
Description: as §1, §2, §3

Sequence of CSNK2A1 (P68400 whole entry): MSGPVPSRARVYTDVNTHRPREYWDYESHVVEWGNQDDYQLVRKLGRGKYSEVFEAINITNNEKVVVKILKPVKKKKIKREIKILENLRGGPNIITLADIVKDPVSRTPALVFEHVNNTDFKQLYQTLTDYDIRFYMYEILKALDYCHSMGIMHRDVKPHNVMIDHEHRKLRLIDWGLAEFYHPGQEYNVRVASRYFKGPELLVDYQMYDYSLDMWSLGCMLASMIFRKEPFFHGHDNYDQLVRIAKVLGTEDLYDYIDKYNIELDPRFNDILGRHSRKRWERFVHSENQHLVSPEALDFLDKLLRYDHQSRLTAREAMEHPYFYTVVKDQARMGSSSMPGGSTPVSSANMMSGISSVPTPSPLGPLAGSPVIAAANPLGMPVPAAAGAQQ

**Q.** With `Cc1cc(Oc2cc(NC(=O)C3CC3)ncn2)ccc1NC(=O)Nc1ccc(Cl)c(C(F)(F)F)c1` [CBT-102] as the compound, how does the remaining activity at 1 µM (CSNK2A1) read?
**A.** 100%

**Q.** What about the remaining activity at 1 µM (ERBB2) of the same compound?
**A.** 93%

**Q.** What about the remaining activity at 1 µM (ERK3) of the same compound?
**A.** 100%

**Q.** What about the remaining activity at 1 µM (MST1) of the same compound?
**A.** 100%

**Q.** And the remaining activity at 1 µM (MYO3A)?
**A.** 81%

**Q.** What about the remaining activity at 1 µM (NDR2) of the same compound?
**A.** 100%

**Q.** And the remaining activity at 1 µM (PIK3CA (I800L))?
**A.** 91%

**Q.** And the remaining activity at 1 µM (TRKB)?
**A.** 71%

**Q.** And the remaining activity at 1 µM (TRPM6)?
**A.** 99%

**Q.** And the IC50 (Aurora-A (h))?
**A.** 1770 nM

**Q.** And the IC50 (B-Raf (h))?
**A.** 348 nM

**Q.** What about the IC50 (CDK4/cyclinD3 (h)) of the same compound?
**A.** > 10000 nM

**Q.** And the IC50 (DDR1 (h))?
**A.** 34 nM

**Q.** What about the IC50 (DDR2 (h)) of the same compound?
**A.** 263 nM

**Q.** And the IC50 (EphB2 (h))?
**A.** 418 nM

**Q.** What about the IC50 (ErbB2 (h)) of the same compound?
**A.** > 10000 nM

**Q.** And the IC50 (FAK (h))?
**A.** > 10000 nM

**Q.** What about the IC50 (FGFR4 (h)) of the same compound?
**A.** > 10000 nM

**Q.** And the IC50 (IR (h))?
**A.** > 10000 nM

**Q.** And the IC50 (MAP4K5 (h))?
**A.** 24 nM

**Q.** What about the IC50 (MLK1 (h)) of the same compound?
**A.** 6060 nM

**Q.** What about the IC50 (Met (h)) of the same compound?
**A.** 2860 nM

**Q.** What about the IC50 (PDGFRβ (h)) of the same compound?
**A.** 1320 nM

**Q.** And the IC50 (PKA (h))?
**A.** > 10000 nM

**Q.** What about the IC50 (PKBα (h)) of the same compound?
**A.** > 10000 nM

**Q.** What about the IC50 (Pim-1 (h)) of the same compound?
**A.** > 10000 nM

**Q.** What about the IC50 (Ret (V804M) (h)) of the same compound?
**A.** 693 nM

**Q.** What about the IC50 (Ret (h)) of the same compound?
**A.** 43 nM

**Q.** What about the IC50 (SAPK2b (h)) of the same compound?
**A.** 70 nM

**Q.** What about the IC50 (SAPK4 (h)) of the same compound?
**A.** 228 nM

**Q.** What about the IC50 (TNIK (h)) of the same compound?
**A.** 113 nM

**Q.** And the IC50 (Tie2 (h))?
**A.** 242 nM

**Q.** And the IC50 (ZAK (h))?
**A.** 26 nM

**Q.** And the IC50 (p70S6K (h))?
**A.** > 10000 nM
